Source: patent EP0041644B1 (priority 1980, dated 1981)
Marks after values point to notes of the source that are not given here.

Legend:
[1] = test system: B16 Melanoma; assay: B16 Melanoma - Test 1 (ip tumor brei); type: in vivo, mice; settings: for Effect MST % T/C / MST Days: QD 1→9, vehicle CMC + H2O
[2] = test system: B16 Melanoma; assay: B16 Melanoma - Test 2 (ip tumor brei); type: in vivo, mice; settings: QD +9
[3] = test system: Lewis Lung Carcinoma; assay: Lewis Lung Carcinoma - Test 1 (ip, delayed therapy); type: in vivo, mice
[4] = test system: B16 Melanoma; assay: B16 Melanoma - Test 3 (sc trocar fragments); type: in vivo, mice; settings: for Effect MST %TC / MST Days: qd 1→9
[5] = test system: L1210 Leukemia; assay: L1210 Leukemia - Test 3 (vehicle comparison); type: in vivo, mice; settings: Day 1 only, vehicle CMC + saline
[6] = test system: L1210 Leukemia; assay: L1210 Leukemia - Test 1 (survival of tumor-bearing mice); type: in vivo; settings: d. 1 only
Source text: This evaluation of the ammonium salt finds the drug to be active against L1210 (ip) leukemia when administered ip one day post-implant of 10^6 L1210 cells (maximum T/C was 164%). […] The vehicle for the ammonium salt was water.

[7] = test system: L-1210 Leukemia; assay: L-1210 Leukemia (Table VIII); settings: for lethality: 200 mg/kg, single ip injection; for maximum T/C / optimal doses: single ip injections; for optimal doses: dose of maximum T/C
Experimental: The sodium and ammonium salts of the present invention were tested against transplantable mouse tumors as indicated below. The methodology used generally followed the protocols of the National Cancer Institute (Cancer Chemotherapy Rep., Part 3, 3, 1-103 (1972). The essential experimental details are given at the bottom of the following tables.

## [NH2][Pt]1([NH2])[O]C(=O)C(O)C(=O)[O]1 [2-Hydroxymalonato diammine platinum (II), 2-hydroxymalonato diammine platinum (II)]
[1]; 2 mg/kg/day ip
  Effect MST % T/C: 133 % T/C
  MST Days: 26.0 days
[1]; 4 mg/kg/day ip
  Effect MST % T/C: 187 % T/C
  MST Days: 36.5 days
[1]; 8 mg/kg/day ip
  Effect MST % T/C: 177 % T/C
  MST Days: 34.5 days
[1]; 16 mg/kg/day ip
  Effect MST % T/C: >308* % T/C
  MST Days: >60.0* Days
[1]; 24 mg/kg/day ip
  Effect MST % T/C: 54 % T/C
  MST Days: 10.5 days
[1]; 32 mg/kg/day ip
  Effect MST % T/C: 38 % T/C
  MST Days: 7.5 days
[1]; ip B16, ip QD 1→9
  maximum T/C: > 308%
[2]; 2 mg/kg/day ip
  Average Weight Change: -1.1 g
  Effect MST % T/C: 182 % T/C
  MST Days: 37.5 days
[2]; 4 mg/kg/day ip
  Average Weight Change: -1.1 g
  Effect MST % T/C: 163 % T/C
  MST Days: 33.5 days
[2]; 8 mg/kg/day ip
  Average Weight Change: -2.1 g
  Effect MST % T/C: 190 % T/C
  MST Days: 39.0 days
[2]; 16 mg/kg/day ip
  Average Weight Change: -2.3 g
  Effect MST % T/C: >293^a % T/C
  MST Days: >60.0^a Days
[3]; 8 mg/kg/inj ip, qd 5→13
  Effect MST %TC: 112 %TC
  MST Days: 14.0 days
[3]; 12 mg/kg/inj ip, qd 5→13
  Effect MST %TC: 168 %TC
  MST Days: 21.0 days
[3]; 16 mg/kg/inj ip, qd 5→13
  Effect MST %TC: 176 %TC
  MST Days: 22.0 days
[3]; 20 mg/kg/inj ip, d. 5,9&13
  Effect MST %TC: 100 %TC
  MST Days: 12.5 days
[3]; 24 mg/kg/inj ip, qd 5→13
  Effect MST %TC: 220 %TC
  MST Days: 27.5 days
[3]; 40 mg/kg/inj ip, d. 5,9&13
  Effect MST %TC: 120 %TC
  MST Days: 15.0 days
[3]; 60 mg/kg/inj ip, d. 5,9&13
  Effect MST %TC: 156 %TC
  MST Days: 19.5 days
[3]; 80 mg/kg/inj ip, d. 5,9&13
  Effect MST %TC: 152 %TC
  MST Days: 19.0 days
[3]; Day 48 (figure in parentheses), 60 mg/kg/inj ip, d. 5,9&13
  Survivors Day 9(48): 1
[3]; given ip, therapy from day 5
  maximum T/C: 220%
[3]; mouse, in vivo, ip, 8 mg/kg
  Survivors Day 9(48): 6/6
[3]; mouse, in vivo, ip, 12 mg/kg
  Survivors Day 9(48): 6/6
[3]; mouse, in vivo, ip, 16 mg/kg
  Survivors Day 9(48): 6/6
[3]; mouse, in vivo, ip, 20 mg/kg
  Survivors Day 9(48): 6/6
[3]; mouse, in vivo, ip, 24 mg/kg
  Survivors Day 9(48): 6/6
[3]; mouse, in vivo, ip, 40 mg/kg
  Survivors Day 9(48): 6/6
[3]; mouse, in vivo, ip, 60 mg/kg
  Survivors Day 9(48): 6/6
[3]; mouse, in vivo, ip, 80 mg/kg
  Survivors Day 9(48): 6/6
[4]; 8 mg/kg/inj ip
  Effect MST %TC: 131 %TC
  MST Days: 40.0 days
[4]; 12 mg/kg/inj ip
  Effect MST %TC: 115 %TC
  MST Days: 35.0 days
[4]; 16 mg/kg/inj ip
  Effect MST %TC: 48 %TC
  MST Days: 14.5 days
[4]; 24 mg/kg/inj ip
  Effect MST %TC: TOX
  MST Days: TOX
[4]; given ip, sc-implanted B16 melanoma
  T/C: 131%
[5]; 40 mg/kg ip
  Effect MST % T/C: 114 % T/C
  MST Days: 8.0 days
[5]; 60 mg/kg ip
  Effect MST % T/C: 143 % T/C
  MST Days: 10.0 days
[5]; 80 mg/kg ip
  Effect MST % T/C: 129 % T/C
  MST Days: 9.0 days
[5]; 100 mg/kg ip
  Effect MST % T/C: 100 % T/C
  MST Days: 7.0 days
[6]; 20 mg/kg/day ip
  Effect MST % T/C: 143 % T/C
  MST Days: 10.0 days
[6]; 40 mg/kg/day ip
  Effect MST % T/C: 143 % T/C
  MST Days: 10.0 days
[6]; 60 mg/kg/day ip
  Effect MST % T/C: 157 % T/C
  MST Days: 11.0 days
[6]; 80 mg/kg/day ip
  Effect MST % T/C: 171 % T/C
  MST Days: 12.0 days

## O=C1[O][Pt]2([NH]C3CCCCC3[NH]2)[O]C(=O)C1O (stereo not drawn) [2-hydroxymalonato(1,2-diaminocyclohexane)platinum (II)]
[7]; 25 mg/kg/inj ip, d.1
  Average Weight Change: -0.3 g
  Effect MST % T/C: 142 % T/C
  MST Days: 8.5 days
  Survivors Day 5(30): 6/6
[7]; 50 mg/kg/inj ip, d.1
  Average Weight Change,g: +0.1 g
  Effect MST % T/C: 150 % T/C
  MST Days: 9.0 days
  Survivors Day 5(30): 6/6
[7]; 100 mg/kg/inj ip, d.1
  Average Weight Change: -1.5 g
  Effect MST % T/C: 183 % T/C
  MST Days: 11.0 days
  Survivors Day 5(30): 6/6
[7]
  lethality: lethal
  maximum T/C: 183%
  optimal doses: 100 mg/kg
[7]; 200 mg/kg/inj ip, d.1
  Average Weight Change,g: TOX
  Effect MST % T/C: TOX
  MST Days: TOX
  Survivors Day 5(30): 0/6

## O=C1[O][Pt]2([NH]C3CCCCC3[NH]2)[O]C(=O)C1[O-].[Na+] (stereo not drawn) [Example 6, 2-Hydroxymalonato(1,2-diaminocyclohexane)platinum (II), sodium salt]
[7]; 6 mg/kg/inj ip, qd 1→9
  Average Weight Change: -0.9 g
  Effect MST % T/C: 192 % T/C
  MST Days: 11.5 days
  Survivors Day 5(30): 6/6
[7]; 12 mg/kg/inj ip, qd 1→9
  Average Weight Change: -2.3 g
  Effect MST % T/C: 233 % T/C
  MST Days: 14.0 days
  Survivors Day 5(30): 6/6
[7]; 24 mg/kg/inj ip, qd 1→9
  Average Weight Change: -2.4 g
  Effect MST % T/C: 342 % T/C
  MST Days: 20.5 days
  Survivors Day 5(30): 4/6
[7]; 25 mg/kg/inj ip, d.1
  Average Weight Change: -0.8 g
  Effect MST % T/C: 183 % T/C
  MST Days: 11.0 days
  Survivors Day 5(30): 6/6
[7]; 48 mg/kg/inj ip, qd 1→9
  Average Weight Change: -3.3 g
  Effect MST % T/C: 100 % T/C
  MST Days: 6.0 days
  Survivors Day 5(30): 5/6
[7]; 50 mg/kg/inj ip, d.1
  Average Weight Change: -1.2 g
  Effect MST % T/C: 208 % T/C
  MST Days: 12.5 days
  Survivors Day 5(30): 6/6
[7]; 100 mg/kg/inj ip, d.1
  Average Weight Change,g: +2.6 g
  Effect MST % T/C: 217 % T/C
  MST Days: 13.0 days
  Survivors Day 5(30): 6/6
[7]
  lethality: lethal
  maximum T/C: 217%
  optimal doses: 100 mg/kg
[7]; 200 mg/kg/inj ip, d.1
  Average Weight Change,g: TOX
  Effect MST % T/C: TOX
  MST Days: TOX
  Survivors Day 5(30): 1/6
[7]; qd 1→9, 12 mg/kg/inj
  T/C: 233%
[7]; qd 1→9, 24 mg/kg/injection
  T/C: 342%
